Reference: PubChem BioAssay (NCI)
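Five compound concentrations were applied to cells in 96-well plates for 48 hours; endpoints were derived by simple linear interpolation of the resulting dose-response curve. GI50: concentration for 50% inhibition of growth. TGI is the concentration that stops growth completely.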

Experiments:
Assay in all cases: NCI anticancer screen, dose series, 48 h; in the data active = GI50 below about 0.43 µM; inactive = the rest
COLO 205 colon = tested on: COLO 205 colon
HCT-116 colon = tested on: HCT-116 colon
HS 578T breast = tested on: HS 578T breast
OVCAR-8 ovarian = tested on: OVCAR-8 ovarian
RXF 393 renal = tested on: RXF 393 renal
SK-MEL-28 melanoma = tested on: SK-MEL-28 melanoma
SK-OV-3 ovarian = tested on: SK-OV-3 ovarian
SNB-19 CNS = tested on: SNB-19 CNS
UACC-62 melanoma = tested on: UACC-62 melanoma
A549 NSCLC = tested on: A549 NSCLC

N#Cc1ccc2c(c1)C(=O)c1c-2n(CCCN=[N+]=[N-])c(=O)c2cc([N+](=O)[O-])ccc12
inactive: GI50 (COLO 205 colon) > 50 µM | GI50 (HCT-116 colon) 3.91 µM | GI50 (HS 578T breast) > 50 µM | GI50 (OVCAR-8 ovarian) > 50 µM | GI50 (RXF 393 renal) > 50 µM | GI50 (SK-MEL-28 melanoma) > 50 µM | GI50 (SK-OV-3 ovarian) > 50 µM | GI50 (SNB-19 CNS) 33 µM | GI50 (UACC-62 melanoma) 3.6 µM
> 50 µM: TGI (COLO 205 colon) | TGI (HCT-116 colon) | TGI (HS 578T breast) | TGI (OVCAR-8 ovarian) | TGI (RXF 393 renal) | TGI (SK-MEL-28 melanoma) | TGI (SK-OV-3 ovarian) | TGI (SNB-19 CNS) | TGI (UACC-62 melanoma)

COC(=O)/C(=N/O)C(C(=O)OC)C(=O)C(=O)Nc1c(Cl)cc(C)cc1S(=O)(=O)O (centres undefined)
> 100 µM: TGI (A549 NSCLC) | TGI (COLO 205 colon) | TGI (HCT-116 colon) | TGI (OVCAR-8 ovarian) | TGI (RXF 393 renal) | TGI (SK-MEL-28 melanoma) | TGI (SK-OV-3 ovarian) | TGI (SNB-19 CNS) | TGI (UACC-62 melanoma)

O=C(O)c1oc2cccc3c2c1CCC3
> 100 µM: TGI (A549 NSCLC) | TGI (COLO 205 colon) | TGI (HCT-116 colon) | TGI (OVCAR-8 ovarian) | TGI (RXF 393 renal) | TGI (SK-MEL-28 melanoma) | TGI (SK-OV-3 ovarian) | TGI (SNB-19 CNS) | TGI (UACC-62 melanoma)

CCCCN(CCCC)C(=O)C(=O)CC(=O)/C=C/c1ccccc1
> 100 µM: TGI (A549 NSCLC) | TGI (COLO 205 colon) | TGI (HCT-116 colon) | TGI (OVCAR-8 ovarian) | TGI (RXF 393 renal) | TGI (SK-MEL-28 melanoma) | TGI (SK-OV-3 ovarian) | TGI (SNB-19 CNS) | TGI (UACC-62 melanoma)

C[C@H]1CCC/C=C/[C@@H]2C[C@H](O)C[C@H]2[C@H](O)[C@@H](SC2OC(CO)C(O)C(O)C2O)CC(=O)O1 (some centres undefined)
55.8 µM: TGI (RXF 393 renal)
> 100 µM: TGI (A549 NSCLC) | TGI (HCT-116 colon) | TGI (OVCAR-8 ovarian) | TGI (SK-MEL-28 melanoma) | TGI (SK-OV-3 ovarian) | TGI (SNB-19 CNS) | TGI (UACC-62 melanoma)
inactive: GI50 (A549 NSCLC) > 100 µM | GI50 (COLO 205 colon) 19.4 µM | GI50 (HCT-116 colon) > 100 µM | GI50 (OVCAR-8 ovarian) 35 µM | GI50 (RXF 393 renal) 20 µM | GI50 (SK-MEL-28 melanoma) 74.3 µM | GI50 (SK-OV-3 ovarian) > 100 µM | GI50 (SNB-19 CNS) > 100 µM | GI50 (UACC-62 melanoma) 33.6 µM
41.6 µM: TGI (COLO 205 colon)

C(#Cc1ccccc1C#Cc1ccccn1)c1ccccn1
24.4 µM: TGI (RXF 393 renal)
44.3 µM: TGI (A549 NSCLC)
40.1 µM: TGI (OVCAR-8 ovarian)
84 µM: TGI (SK-MEL-28 melanoma)
> 100 µM: TGI (HCT-116 colon)
28.6 µM: TGI (UACC-62 melanoma)
37.9 µM: TGI (SK-OV-3 ovarian)
39.3 µM: TGI (SNB-19 CNS)
inactive: GI50 (A549 NSCLC) 20.5 µM | GI50 (COLO 205 colon) 16.9 µM | GI50 (HCT-116 colon) 26.4 µM | GI50 (OVCAR-8 ovarian) 17.8 µM | GI50 (RXF 393 renal) 7.71 µM | GI50 (SK-MEL-28 melanoma) 27.4 µM | GI50 (SK-OV-3 ovarian) 16.5 µM | GI50 (SNB-19 CNS) 18 µM | GI50 (UACC-62 melanoma) 14.7 µM
46.4 µM: TGI (COLO 205 colon)

N[C@H](C(=O)O)[C@@H](Cl)CC(=O)O
> 100 µM: TGI (A549 NSCLC) | TGI (COLO 205 colon) | TGI (HCT-116 colon) | TGI (OVCAR-8 ovarian) | TGI (RXF 393 renal) | TGI (SK-MEL-28 melanoma) | TGI (SK-OV-3 ovarian) | TGI (SNB-19 CNS) | TGI (UACC-62 melanoma)

c1ccc(-c2cnc3nc4ccccc4nc3n2)cc1
23.6 µM: TGI (A549 NSCLC)
15.4 µM: TGI (UACC-62 melanoma)
33.3 µM: TGI (HS 578T breast)
21.9 µM: TGI (HCT-116 colon)
17.6 µM: TGI (COLO 205 colon)
32.7 µM: TGI (SNB-19 CNS)
32.8 µM: TGI (SK-MEL-28 melanoma)
6.8 µM: TGI (OVCAR-8 ovarian)
9.12 µM: TGI (SK-OV-3 ovarian)
